Experimental findings from US20090036440A1, “NOVEL PYRIMIDINE DERIVATIVES - 816” (AstraZeneca AB, priority 2007, published 2009) are described below.

One experiment concerns the target T1, recombinant EphB4 (Homo sapiens, UniProt P54760).
T1 construct: recombinant active EphB4 (amino acids 563-987; Swiss-Prot Acc; No. P54760); purchased ProQinase GmbH 0178-0000-3
T1 sequence (P54760 563-987): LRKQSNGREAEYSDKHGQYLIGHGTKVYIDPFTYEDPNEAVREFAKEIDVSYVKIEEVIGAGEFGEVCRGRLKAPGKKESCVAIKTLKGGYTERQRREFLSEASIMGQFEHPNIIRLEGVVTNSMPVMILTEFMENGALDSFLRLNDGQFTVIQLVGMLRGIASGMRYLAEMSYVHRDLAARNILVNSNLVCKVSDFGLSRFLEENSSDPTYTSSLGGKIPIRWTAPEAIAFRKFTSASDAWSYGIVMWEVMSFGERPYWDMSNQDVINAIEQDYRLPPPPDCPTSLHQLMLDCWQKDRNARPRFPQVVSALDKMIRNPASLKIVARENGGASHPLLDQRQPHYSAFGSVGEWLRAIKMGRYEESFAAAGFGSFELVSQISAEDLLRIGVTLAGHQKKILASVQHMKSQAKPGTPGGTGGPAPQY
Briefly: In vitro EphB4 enzyme assay (Alphascreen). It counts as biochemical. The protocol: This assay detects inhibitors of EphB4-mediated phosphorylation of a polypeptide substrate using Alphascreen™ luminescence detection technology. Briefly, recombinant EphB4 was incubated with a biotinylated-polypeptide substrate (biotin-poly-GAT) in presence of magnesium-ATP. The reaction was stopped by addition of EDTA, together with streptavidin-coated donor beads which bind the biotin-substrate containing any phosphorylated tyrosine residues. Anti-phosphotyrosine antibodies present on acceptor beads bind to phosphorylated substrate, thus bringing the donor & acceptor beads into close proximity. Subsequent excitation of the donor beads at 680 nm generated singlet oxygen species that interact with a chemiluminescer on the acceptor beads, leading to light emission at 520-620 nm. The signal intensity is directly proportional to the level of substrate phosphorylation and thus inhibition is measured by a decrease in signal.
To ensure that each well contained a total of 120 nl DMSO the wells were all backfilled as required. […] The test range of compounds was 100× the required final concentration.
Assay plates were then incubated at room temperature for 1 hour.
For assays using compounds prepared via acoustic dispensing, the assay mix was adjusted such that the final assay volume of 12 ul contained the same concentration of reagent as 10 ul of assay mix used when aqueous compounds were tested.
The plates were sealed under natural lighting conditions, wrapped in aluminium foil and incubated in the dark for a further 20 hours.
The resulting assay signal was determined on the Perkin Elmer EnVision plate reader. The minimum value was subtracted from all values, and the signal plotted against compound concentration to generate IC50 data. The method used to generate the compound dilutions was recorded with the IC50 value in the database.

The target in the next experiment is T2, human EphB4 (Homo sapiens, UniProt P54760).
T2 construct: to generate full-length EphB4 containing a Myc-His tag at the C-terminus; expressed in transfected cells; EphB4-CHO)
T2 sequence (P54760 16-987): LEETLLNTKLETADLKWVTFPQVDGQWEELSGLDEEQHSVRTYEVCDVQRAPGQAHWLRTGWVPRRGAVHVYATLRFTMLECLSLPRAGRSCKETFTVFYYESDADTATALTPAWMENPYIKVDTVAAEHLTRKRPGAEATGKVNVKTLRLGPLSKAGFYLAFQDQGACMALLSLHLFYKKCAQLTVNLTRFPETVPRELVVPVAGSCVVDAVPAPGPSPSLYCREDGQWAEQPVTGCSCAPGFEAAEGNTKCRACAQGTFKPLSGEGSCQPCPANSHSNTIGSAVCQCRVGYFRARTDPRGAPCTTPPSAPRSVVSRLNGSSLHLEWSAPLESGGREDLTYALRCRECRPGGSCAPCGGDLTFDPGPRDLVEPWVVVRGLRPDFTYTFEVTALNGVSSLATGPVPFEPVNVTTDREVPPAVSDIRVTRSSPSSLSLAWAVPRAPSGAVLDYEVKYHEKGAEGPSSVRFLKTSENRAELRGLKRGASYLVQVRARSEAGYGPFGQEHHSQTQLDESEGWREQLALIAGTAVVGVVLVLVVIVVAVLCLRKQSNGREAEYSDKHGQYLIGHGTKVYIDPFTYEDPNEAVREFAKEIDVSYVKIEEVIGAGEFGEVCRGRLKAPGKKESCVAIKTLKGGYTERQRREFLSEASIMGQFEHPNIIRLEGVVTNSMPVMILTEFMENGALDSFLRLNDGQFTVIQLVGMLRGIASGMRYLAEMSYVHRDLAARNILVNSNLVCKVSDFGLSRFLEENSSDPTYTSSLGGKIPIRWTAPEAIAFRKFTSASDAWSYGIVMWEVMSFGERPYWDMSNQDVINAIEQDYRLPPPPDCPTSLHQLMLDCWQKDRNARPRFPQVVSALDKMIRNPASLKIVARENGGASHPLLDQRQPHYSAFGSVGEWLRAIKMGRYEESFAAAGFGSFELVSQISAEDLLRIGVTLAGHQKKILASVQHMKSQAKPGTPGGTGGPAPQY
Kind of experiment: In vitro EphB4 cell assay (EphB4 phosphorylation ELISA in EphB4-CHO cells). The class given is cell-based. The note with it: ephrin-B2 stimulated EphB4 phosphorylation, read-out: Mean IC50 values obtained using Assay B. The protocol: The assay identifies inhibitors of cellular EphB4 by measuring a decrease in phosphorylation of EphB4 following treatment of cells with compound. The endpoint assay used a sandwich ELISA to detect EphB4 phosphorylation status. Briefly, Myc-tagged EphB4 from treated cell lysate was captured on the ELISA plate via an anti-c-Myc antibody. The phosphorylation status of captured EphB4 was then measured using a generic phosphotyrosine antibody conjugated to HRP via a calorimetric output catalysed by HRP, with level of EphB4 phosphorylation directly proportional to the colour intensity. Absorbance was measured spectrophotometrically at 450 nm.
Full length human EphB4 (Swiss-Prot Acc. No. P54760) was cloned using standard techniques from cDNA prepared from HUVEC using RT-PCR. The cDNA fragment was then sub-cloned into a pcDNA3.1 expression vector containing a Myc-His epitope tag to generate full-length EphB4 containing a Myc-His tag at the C-terminus (Invitrogen Ltd. Paisley, UK). CHO-K1 cells (LGC Promochem, Teddington, Middlesex, UK, Catalogue No. CCL-61) were maintained in HAM's F12 medium (Sigma-Aldrich Company Ltd, Gillingham, Dorset SP8 4XT, Catalogue No. N4888) containing 10% heat-inactivated foetal calf serum (PAA lab GmbH, Pasching, Austria Catalogue No. PAA-A15-043) and 1% glutamax-1 (Invitrogen Ltd., Catalogue No. 35050-038) at 37° C. with 5% CO2. CHO-K1 cells were engineered to stably express the EphB4-Myc-His construct using standard stable transfection techniques, to generate cells hereafter termed EphB4-CHO.
For each assay, 10,000 EphB4-CHO cells were seeded into each well of Costar 96-well tissue-culture plate (Fisher Scientific UK, Loughborough, Leicestershire, UK., Catalogue No. 3598) and cultured overnight in full media. On day 2, the cells were incubated overnight in 90 μl/well of media containing 0.1% Hyclone stripped-serum (Fisher Scientific UK, Catalogue No. SH30068.02). Test compounds were prepared as 10 mM stock solutions in DMSO (Sigma-Aldrich Company Ltd, Gillingham, Dorset SP8 4XT Catalogue No. 154938) and serially diluted with serum-free media to give a range of test concentrations at 10× the required final concentration. A 10 μl aliquot of each compound dilution was transferred to the cell plates in duplicate wells, and the cells incubated for 1 hour at 37° C. Each plate also contained control wells: a maximum signal was created using untreated cells, and minimum signal corresponding to 100% inhibition was created using wells containing a reference compound known to abolish EphB4 activity. […]
In general terms: ELISA stands for enzyme-linked immunosorbent assay.

[1] abbreviates: compound preparation: Genesis (aqueous dilution).
The mark [2] stands for this setting: compound preparation: Echo (acoustic dispensing).

Structures are written as SMILES.

With `CN(c1ccnc(Nc2cc(Cl)cc(N3CCOCC3)n2)n1)c1ccc(F)c(Cl)c1F` [Example 1, N′-(3-chloro-2,4-difluoro-phenyl)-N-(4-chloro-6-morpholin-4-yl-pyridin-2-yl)-N′-methyl-pyrimidine-2,4-diamine], the half-inhibitory concentration (IC50) on recombinant EphB4 (setting [1]) worked out at 38300 nM; at human EphB4, 354 nM. The like results for `CN(c1ccnc(Nc2cc(N3CCOCC3)nc(N3CCOCC3)c2)n1)c1ccc(F)c(Cl)c1F` [Example 2.1, N′-(3-chloro-2,4-difluoro-phenyl)-N-(2,6-dimorpholin-4-ylpyridin-4-yl)-N′-methyl-pyrimidine-2,4-diamine] were, in that order, 1120 nM and 8 nM. `CN(c1ccnc(Nc2cc(N3CCOCC3)cc(N3CCOCC3)n2)n1)c1ccc(F)c(Cl)c1F` [Example 2.2, N′-(3-chloro-2,4-difluoro-phenyl)-N-(4,6-dimorpholin-4-ylpyridin-2-yl)-N′-methyl-pyrimidine-2,4-diamine]: the IC50 at recombinant EphB4 (setting [1]) came out at 808 nM.

Take `CN(c1ccnc(Nc2cc(Cl)nc(N3CCOCC3)c2)n1)c1ccc(F)c(Cl)c1F` [Example 2.3, N′-(3-chloro-2,4-difluoro-phenyl)-N-(2-chloro-6-morpholin-4-yl-pyridin-4-yl)-N′-methyl-pyrimidine-2,4-diamine]: the IC50 at recombinant EphB4 (setting [1]) stood at 1780 nM.

Regarding `CN(c1ccnc(Nc2cc(N3CCOCC3)nc(N3CCOCC3)n2)n1)c1ccc(F)c(Cl)c1F` [Example 2.4, N′-(3-chloro-2,4-difluoro-phenyl)-N-(2,6-dimorpholin-4-ylpyrimidin-4-yl)-N′-methyl-pyrimidine-2,4-diamine], the IC50 on recombinant EphB4 (setting [1]) is 6270 nM. On to `Cc1ccc(CO)cc1N(C)c1ccnc(Nc2cc(Cl)cc(N3CCOCC3)n2)n1` [Example 3, [3-[[2-[(4-chloro-6-morpholin-4-yl-pyridin-2-yl)amino]pyrimidin-4-yl]-methyl-amino]-4-methyl-phenyl]methanol], for which the figures for the IC50 at recombinant EphB4 (setting [1]) and at human EphB4 were 198 nM and 28 nM, respectively. Consider `Cc1ccc(CO)cc1N(C)c1ccnc(Nc2cc(N3CCOCC3)cc(N3CCOCC3)n2)n1` [Example 4.2, [3-[[2-[(4,6-dimorpholin-4-ylpyridin-2-yl)amino]pyrimidin-4-yl]-methyl-amino]-4-methyl-phenyl]methanol], for which the results for the IC50 at recombinant EphB4 (setting [1]) and at human EphB4 were 456 nM and 302 nM, respectively. For `Cc1ccc(CO)cc1N(C)c1ccnc(Nc2cc(Cl)nc(N3CCOCC3)c2)n1` [Example 4.3, [3-[[2-[(2-chloro-6-morpholin-4-yl-pyridin-4-yl)amino]pyrimidin-4-yl]-methyl-amino]-4-methyl-phenyl]methanol], on recombinant EphB4 (setting [1]), the IC50 is 473 nM. Regarding `COc1ccc(C)c(N(C)c2ccnc(Nc3cc(N4CCOCC4)nc(N4CCN(C)CC4)c3)n2)c1` [Example 5.1, N4-(5-methoxy-2-methylphenyl)-N4-methyl-N2-(2-(4-methylpiperazin-1-yl)-6-morpholinopyridin-4-yl)pyrimidine-2,4-diamine], the IC50 on recombinant EphB4 (setting [2]) stood at 2.31 nM.

As for `COc1ccc(C)c(N(C)c2ccnc(Nc3cc(N4CCOCC4)nc(N4CCC(O)CC4)c3)n2)c1` [Example 5.2, 1-(4-(4-((5-methoxy-2-methylphenyl)(methyl)amino)pyrimidin-2-ylamino)-6-morpholinopyridin-2-yl)piperidin-4-ol], the IC50 on recombinant EphB4 (setting [2]) was 3.25 nM.

A word on the IC50: it is the concentration needed to halve the response being measured.
